Test results: EP0565593B1, “REDUCING PESTICIDAL INTERACTIONS IN CROPS” (priority 1990, dated 1992)
Several values for one entry are separate records, joined by “and”; a condition that tells them apart may be missing. Equal values may be shown once. Read-outs that look alike come from different tables or passages of the source.

What was measured:
Corn [1] = system: Corn
Velvetleaf (VELE) [2] = type: in vivo, Abutilon theophrasti
Corn [3] = system: Corn; remark: listed apart in the source
Shattercane (SHCA) = type: in vivo
Giant foxtail (GIFT) = assay: whole plant or invertebrate; type: in vivo
Velvetleaf (VELE) [4] = assay: whole plant or invertebrate; type: in vivo, Abutilon theophrasti
[5] = […], observed 7 days after POE (Table 35)
[6] = […], observed 7 days after POE (Table 36)
[7] = […], PPI, 14 days after PPI (Table 34)
[8] = […], observed 8 days later (Table 32)
[9] = […], observed 8 days later (Table 33)
[10] = […], PPI, 13 days after PPI (Table 31)
[11] = […], observed 9 days later (Table 29)
[12] = […], observed 9 days later (Table 30)
[13] = Antidote 4.48 + Biocide No. 1 8.96 Kg/Ha PPI, Herb. No. 8 0.07, 5 DAP, before herbicide application
[14] = Antidote 4.48 + Biocide No. 1 8.96 Kg/Ha PPI, Herb. No. 8 0.07 POE, 13 DAP
[15] = Antidote 4.48 + Biocide No. 1 8.96 Kg/Ha PPI, Herbicide No. 7 0.28 POE, 13 days after planting
[16] = Herb. […], 5 DAP, before herbicide application
[17] = Herb. […], 13 DAP, after herbicide application
[18] = Table 14: Herbicide No. 7 (ACCENT) 0.84 Kg/Ha POE + Biocide No. 2 8.96 Kg/Ha PPI + antidote 4.48 Kg/Ha PPI, 13 days after planting, 8 days after herbicide
[19] = […], 13 days after planting, 8 days after herbicide
[20] = […], observed 10 days after herbicide application

## C=CCC(C)(C#N)Sc1ccc(C(C)C)cc1 (stereo not drawn) [compound 75]
Corn [1]; in vivo
  % Inhibition Corn: 75%
Velvetleaf (VELE) [2]; [5]
  % Inhibition VELE: 85%
Velvetleaf (VELE) [2]; [6]
  % Inhibition VELE: 75%
Corn [3]; [5]
  % Inhibition Corn: 70%
Corn [3]; [6]
  % Inhibition Corn: 65%
Shattercane (SHCA); [5]
  % Inhibition SHCA: 70%
Shattercane (SHCA); [6]
  % Inhibition SHCA: 40%
Giant foxtail (GIFT); in vivo
  % Inhibition GIFT: 75%
Velvetleaf (VELE) [4]; in vivo
  % Inhibition VELE: 85%

## CCOC(=O)CNC(c1ccc(OC)cc1)c1ccc(OC)cc1 [compound 43]
Corn [1]; [7]
  % Inhibition Corn: 80%
Velvetleaf (VELE) [2]; [8]
  % Inhibition VELE: 85%
Velvetleaf (VELE) [2]; [9]
  % Inhibition VELE: 75%
Corn [3]; [8]
  % Inhibition Corn: 55%
Corn [3]; [9]
  % Inhibition Corn: 65%
Shattercane (SHCA); [8]
  % Inhibition SHCA: 65%
Shattercane (SHCA); [9]
  % Inhibition SHCA: 35%
Giant foxtail (GIFT); [7]
  % Inhibition GIFT: 70%
Velvetleaf (VELE) [4]; [7]
  % Inhibition VELE: 90%

## O=C(COC(c1ccccc1)c1cccc(C(F)(F)F)c1)OCC(F)(F)F (stereo not drawn) [compound 53]
Corn [1]; [7]
  % Inhibition Corn: 60%
Velvetleaf (VELE) [2]; [8]
  % Inhibition VELE: 85%
Velvetleaf (VELE) [2]; [9]
  % Inhibition VELE: 70%
Corn [3]; [8]
  % Inhibition Corn: 50%
Corn [3]; [9]
  % Inhibition Corn: 50%
Shattercane (SHCA); [8]
  % Inhibition SHCA: 80%
Shattercane (SHCA); [9]
  % Inhibition SHCA: 25%
Giant foxtail (GIFT); [7]
  % Inhibition GIFT: 70%
Velvetleaf (VELE) [4]; [7]
  % Inhibition VELE: 100%

## CC(C)(C)c1ccccc1SCCC#N [compound 74]
Corn [1]; in vivo
  % Inhibition Corn: 70%
Velvetleaf (VELE) [2]; [5]
  % Inhibition VELE: 80%
Velvetleaf (VELE) [2]; [6]
  % Inhibition VELE: 70%
Corn [3]; [5]
  % Inhibition Corn: 65%
Corn [3]; [6]
  % Inhibition Corn: 60%
Shattercane (SHCA); [5]
  % Inhibition SHCA: 80%
Shattercane (SHCA); [6]
  % Inhibition SHCA: 20%
Giant foxtail (GIFT); in vivo
  % Inhibition GIFT: 85%
Velvetleaf (VELE) [4]; in vivo
  % Inhibition VELE: 90%

## CNC(=O)COC(c1ccccc1)c1ccccc1 [compound 42]
Corn [1]; [7]
  % Inhibition Corn: 75%
Velvetleaf (VELE) [2]; [8]
  % Inhibition VELE: 90%
Velvetleaf (VELE) [2]; [9]
  % Inhibition VELE: 70%
Corn [3]; [8]
  % Inhibition Corn: 70%
Corn [3]; [9]
  % Inhibition Corn: 60%
Shattercane (SHCA); [8]
  % Inhibition SHCA: 75%
Shattercane (SHCA); [9]
  % Inhibition SHCA: 30%
Giant foxtail (GIFT); [7]
  % Inhibition GIFT: 70%
Velvetleaf (VELE) [4]; [7]
  % Inhibition VELE: 90%

## N#CCCOC(=O)COC(c1ccccc1)c1ccccc1 [compound 52]
Corn [1]; [7]
  % Inhibition Corn: 40%
Velvetleaf (VELE) [2]; [8]
  % Inhibition VELE: 85%
Velvetleaf (VELE) [2]; [9]
  % Inhibition VELE: 75%
Corn [3]; [8]
  % Inhibition Corn: 20%
Corn [3]; [9]
  % Inhibition Corn: 45%
Shattercane (SHCA); [8]
  % Inhibition SHCA: 70%
Shattercane (SHCA); [9]
  % Inhibition SHCA: 25%
Giant foxtail (GIFT); [7]
  % Inhibition GIFT: 65%
Velvetleaf (VELE) [4]; [7]
  % Inhibition VELE: 85%

## COC(=O)ON=C(N)COc1cccc2cccnc12 [compound 76]
Corn [1]; in vivo
  % Inhibition Corn: 65%
Velvetleaf (VELE) [2]; [5]
  % Inhibition VELE: 80%
Velvetleaf (VELE) [2]; [6]
  % Inhibition VELE: 70%
Corn [3]; [5]
  % Inhibition Corn: 55%
Corn [3]; [6]
  % Inhibition Corn: 55%
Shattercane (SHCA); [5]
  % Inhibition SHCA: 65%
Shattercane (SHCA); [6]
  % Inhibition SHCA: 30%
Giant foxtail (GIFT); in vivo
  % Inhibition GIFT: 70%
Velvetleaf (VELE) [4]; in vivo
  % Inhibition VELE: 90%

## CC(C)CC1c2ccccc2CCN1C(=O)C(Cl)Cl (stereo not drawn) [compound 41]
Corn [1]; [10]
  % Inhibition Corn: 60%
Velvetleaf (VELE) [2]; [11]
  % Inhibition VELE: 90%
Velvetleaf (VELE) [2]; [12]
  % Inhibition VELE: 70%
Corn [3]; [11]
  % Inhibition Corn: 25%
Corn [3]; [12]
  % Inhibition Corn: 45%
Shattercane (SHCA); [11]
  % Inhibition SHCA: 80%
Shattercane (SHCA); [12]
  % Inhibition SHCA: 30%
Giant foxtail (GIFT); [10]
  % Inhibition GIFT: 90%
Velvetleaf (VELE) [4]; [10]
  % Inhibition VELE: 80%

## CC1(C)OC(Cc2ccccc2)CN1C(=O)C(Cl)Cl (stereo not drawn) [compound 34]
Corn [1]; [10]
  % Inhibition Corn: 35%
Velvetleaf (VELE) [2]; [11]
  % Inhibition VELE: 85%
Velvetleaf (VELE) [2]; [12]
  % Inhibition VELE: 70%
Corn [3]; [11]
  % Inhibition Corn: 15%
Corn [3]; [12]
  % Inhibition Corn: 35%
Shattercane (SHCA); [11]
  % Inhibition SHCA: 70%
Shattercane (SHCA); [12]
  % Inhibition SHCA: 25%
Giant foxtail (GIFT); [10]
  % Inhibition GIFT: 75%
Velvetleaf (VELE) [4]; [10]
  % Inhibition VELE: 80%

## CCOC(=O)c1sc(Br)nc1C(F)(F)F [compound 66]
Corn [1]; in vivo
  % Inhibition Corn: 50%
Velvetleaf (VELE) [2]; [5]
  % Inhibition VELE: 80%
Velvetleaf (VELE) [2]; [6]
  % Inhibition VELE: 60%
Corn [3]; [5]
  % Inhibition Corn: 30%
Corn [3]; [6]
  % Inhibition Corn: 50%
Shattercane (SHCA); [5]
  % Inhibition SHCA: 60%
Shattercane (SHCA); [6]
  % Inhibition SHCA: 25%
Giant foxtail (GIFT); in vivo
  % Inhibition GIFT: 70%
Velvetleaf (VELE) [4]; in vivo
  % Inhibition VELE: 90%

## [O-][n+]1ccccc1Sc1nc(Cl)c(Cl)c(Cl)c1Cl [compound 70]
Corn [1]; in vivo
  % Inhibition Corn: 75%
Velvetleaf (VELE) [2]; [5]
  % Inhibition VELE: 90%
Velvetleaf (VELE) [2]; [6]
  % Inhibition VELE: 85%
Corn [3]; [5]
  % Inhibition Corn: 70%
Corn [3]; [6]
  % Inhibition Corn: 65%
Shattercane (SHCA); [5]
  % Inhibition SHCA: 70%
Shattercane (SHCA); [6]
  % Inhibition SHCA: 25%
Giant foxtail (GIFT); in vivo
  % Inhibition GIFT: 70%
Velvetleaf (VELE) [4]; in vivo
  % Inhibition VELE: 95%

## O=C(C(Cl)Cl)N1CCc2ccccc2C1c1ccccc1 (stereo not drawn) [compound 40]
Corn [1]; [10]
  % Inhibition Corn: 60%
Velvetleaf (VELE) [2]; [11]
  % Inhibition VELE: 90%
Velvetleaf (VELE) [2]; [12]
  % Inhibition VELE: 70%
Corn [3]; [11]
  % Inhibition Corn: 45%
Corn [3]; [12]
  % Inhibition Corn: 35%
Shattercane (SHCA); [11]
  % Inhibition SHCA: 85%
Shattercane (SHCA); [12]
  % Inhibition SHCA: 40%
Giant foxtail (GIFT); [10]
  % Inhibition GIFT: 70%
Velvetleaf (VELE) [4]; [10]
  % Inhibition VELE: 85%

## O=C(O)COc1cc(C(F)(F)F)cc(C(F)(F)F)c1 [compound 71]
Corn [1]; in vivo
  % Inhibition Corn: 30%
Velvetleaf (VELE) [2]; [5]
  % Inhibition VELE: 85%
Velvetleaf (VELE) [2]; [6]
  % Inhibition VELE: 75%
Corn [3]; [5]
  % Inhibition Corn: 20%
Corn [3]; [6]
  % Inhibition Corn: 45%
Shattercane (SHCA); [5]
  % Inhibition SHCA: 65%
Shattercane (SHCA); [6]
  % Inhibition SHCA: 30%
Giant foxtail (GIFT); in vivo
  % Inhibition GIFT: 70%
Velvetleaf (VELE) [4]; in vivo
  % Inhibition VELE: 90%

## CCCOC(=O)COC(c1ccccc1)c1ccccc1 [compound 47]
Corn [1]; [7]
  % Inhibition Corn: 60%
Velvetleaf (VELE) [2]; [8]
  % Inhibition VELE: 85%
Velvetleaf (VELE) [2]; [9]
  % Inhibition VELE: 75%
Corn [3]; [8]
  % Inhibition Corn: 25%
Corn [3]; [9]
  % Inhibition Corn: 50%
Shattercane (SHCA); [8]
  % Inhibition SHCA: 75%
Shattercane (SHCA); [9]
  % Inhibition SHCA: 30%
Giant foxtail (GIFT); [7]
  % Inhibition GIFT: 65%
Velvetleaf (VELE) [4]; [7]
  % Inhibition VELE: 85%

## O=C(O)c1sc(Cl)nc1C(F)(F)F [compound 68]
Corn [1]; in vivo
  % Inhibition Corn: 45%
Velvetleaf (VELE) [2]; [5]
  % Inhibition VELE: 85%
Velvetleaf (VELE) [2]; [6]
  % Inhibition VELE: 60%
Corn [3]; [5]
  % Inhibition Corn: 25%
Corn [3]; [6]
  % Inhibition Corn: 65%
Shattercane (SHCA); [5]
  % Inhibition SHCA: 70%
Shattercane (SHCA); [6]
  % Inhibition SHCA: 45%
Giant foxtail (GIFT); in vivo
  % Inhibition GIFT: 65%
Velvetleaf (VELE) [4]; in vivo
  % Inhibition VELE: 80%

## CCOC(=O)c1cnoc1-c1ccc(Cl)cc1Cl [compound 30]
Velvetleaf (VELE) [2]; [13]
  % Inhibition 5 DAP VELE: 75%
Velvetleaf (VELE) [2]; [14]
  % Inhibition 13 DAP VELE: 95%
Velvetleaf (VELE) [2]; [15]
  % Inhibition VELE: 95%
Velvetleaf (VELE) [2]; [16]
  % Inhibition 5 DAP VELE: 90%
Velvetleaf (VELE) [2]; [17]
  % Inhibition 13 DAP VELE: 95%
Velvetleaf (VELE) [2]; [18]
  % Inhibition VELE: 100%
Velvetleaf (VELE) [2]; [19]
  % Inhibition VELE: 100%
Velvetleaf (VELE) [2]; [20]
  % Inhibition VELE: 95%
Velvetleaf (VELE) [2]; in vivo
  % Inhibition 5 DAP VELE: 80%
  % Inhibition 13 DAP VELE: 95%
Corn [3]; [13]
  % Inhibition 5 DAP Corn: 10%
Corn [3]; [14]
  % Inhibition 13 DAP Corn: 50%
Corn [3]; [15]
  % Inhibition Corn: 55%
Corn [3]; [16]
  % Inhibition 5 DAP Corn: 0%
Corn [3]; [18]
  % Inhibition Corn: 30%
Corn [3]; [19]
  % Inhibition Corn: 25%
Corn [3]; [20]
  % Inhibition Corn: 70%
Corn [3]; in vivo
  % Inhibition 5 DAP Corn: 10%
  % Inhibition 13 DAP Corn: 56%
  % Inhibition Corn: 50% and 35% and 40%
  effect on corn before application of the herbicide: Some injury
Shattercane (SHCA); [13]
  % Inhibition 5 DAP SHCA: 50%
Shattercane (SHCA); [14]
  % Inhibition 13 DAP SHCA: 75%
Shattercane (SHCA); [15]
  % Inhibition SHCA: 85%
Shattercane (SHCA); [17]
  % Inhibition 13 DAP SHCA: 95%
Shattercane (SHCA); [18]
  % Inhibition SHCA: 90%
Shattercane (SHCA); [19]
  % Inhibition SHCA: 90%
Shattercane (SHCA); [20]
  % Inhibition SHCA: 70%
Shattercane (SHCA); in vivo
  % Inhibition 5 DAP SHCA: 25%
  % Inhibition 13 DAP SHCA: 95%
  % Inhibition SHCA: 90% and 60% and 70%
Giant foxtail (GIFT); in vivo
  % Inhibition GIFT: 65% and 80% and 90% and 75% and 95%
Velvetleaf (VELE) [4]; in vivo
  % Inhibition VELE: 90% and 95% and 100%
